# Source: a melting point compilation (Tetko et al.; mined from patent text by program, amines drawn as free bases though some values may be those of a salt)
row,Compound,melting point [°C]
1,O=C(Nc1cccc(C(F)(F)F)c1)c1cccnc1NCc1cccc(O)c1,143 to 146
2,O=C1c2ccccc2C2(c3ccc(Cl)cc3)NCCN12 (configuration not stated),166 to 168
3,COc1cccc(Oc2ccc3ccc(N)nc3n2)c1,160
4,N#Cc1cc(-c2ccc(Cl)cc2)cnc1N,202 to 204
5,CC(CCC1C(C)CCCC1(C)C)Oc1ccc(C(=O)O)cc1 (configuration not stated),114 to 118
6,CCC1CC2(C)C(CCC3C2CCC2(C)C(OC)CCC32)CC1=O (configuration not stated),105 to 107
7,Nc1cc(=O)n(Cc2ccc(F)cc2Cl)[nH]1,192
8,C[C@]1(CN2CCC(c3ccccc3)CC2)Cn2cc([N+](=O)[O-])nc2O1,159 to 164
9,Nc1ncnc2c1ncn2C[C@@H](CF)OCP(=O)(O)O,194 to 197
10,Fc1ccc(Nc2ncnc3cnc(NCCN4CCNCC4)nc23)cc1Cl,173 to 175
11,O=C(O)c1cc2cc(OCc3ccccc3)ccc2cc1OCc1ccccc1,163 to 165
12,CCOC(=O)CC(NS(=O)(=O)c1cccc(-c2cccc(NC(=NC#N)NCc3ccccn3)c2)c1)c1ccccc1 (configuration not stated),82
13,C[C@H](Nc1nc(C(N)=O)nc(Cl)c1-c1c(F)cc(F)cc1F)C(F)(F)F,157 to 162
14,CC(C)(C)c1nc(C=NO)nc(C(C)(C)C)c1O,205 to 220
15,CS(=O)(=O)c1ccc(-c2cnn(CC(O)c3ccccc3)c(=O)c2-c2ccc(F)cc2)cc1 (configuration not stated),205 to 207
16,Cc1nc2cc3c(cc2c(=O)[nH]1)C(N(C)c1ccc(C(=O)NC(CCc2nnn(CC(=O)O)n2)C(=O)O)c(F)c1)CC3 (mixture of isomers),196 to 199
17,Fc1cc2c(cc1Cl)C(Cl)Cc1ccccc1S2 (configuration not stated),94 to 96
18,CCN(CC)C(=O)c1ccc2c(c1)C(=C(Cl)Cl)OC(C(Cl)(Cl)Cl)O2 (configuration not stated),123 to 124
19,COc1cc(C(=O)c2c[nH]c(-c3cn(S(=O)(=O)c4ccccc4)c4ccccc34)n2)cc(OC)c1OC,110 to 112
20,COc1ccc(Cc2cccc(C(Cl)(C3=NCCCN3)c3ccccc3)c2)cc1 (configuration not stated),125
21,NC1CCN(CC23CC(c4ccccc42)c2ccccc23)CC1,116 to 119
22,CC(=O)Oc1cccnc1-n1ccnc1S(=O)Cc1ccccc1N1CCOCC1 (configuration not stated),104 to 107
23,CCOC(=O)/C(=N\OC1CCS(=O)(=O)C1)c1csc(N)n1 (configuration not stated),147 to 148
24,O=CC1=C(Cl)Nc2cc(F)c(F)cc2C1,260
25,CCCCNC(=O)NC(Cc1ccccc1)C(=O)Nc1c(F)cc(F)cc1F (configuration not stated),217 to 218

row,Compound,melting point [°C]
1,CCCCc1nc(Cl)c(CC#N)n1Cc1ccc([N+](=O)[O-])cc1,118 to 121
2,CSc1c(C)c(-c2cc(OS(=O)(=O)C(F)(F)F)c(Cl)cc2F)nn1C,54 to 56
3,CSC1NC(=O)N(C(C)C)C(=O)N1C (configuration not stated),73 to 75
4,CCCNC(=O)CCCCOc1ccc2c(c1)CCCN2C1CC(C)N(C(=O)c2cc(OC)c(OC)c(OC)c2)c2ccccc21 (configuration not stated),124 to 133
5,CC(=O)c1c(C)cc(NC(C)(C)C)nc1NC(C)(C)C,127 to 128
6,Nc1nc2cc(Cl)c(Cl)cc2nc1Br,232 to 234
7,CC(C)CCn1cc(C2CCN(CCOc3ccccc3C(=O)O)CC2)c2ccccc21,150 to 151
8,Cc1cc(C(C)(C)c2ccc(O)cc2)ccc1O,112 to 113
9,O=[N+]([O-])c1ccc(-n2nnnc2-c2ccccc2Br)cc1,169 to 170
10,BrC(Br)Cc1ccc(OCc2ccccc2)cc1,97 to 98
11,CC(C)(C)c1cc(P(c2ccccc2)c2ccccc2)cc(C(C)(C)C)c1O,92 to 93
12,Clc1cccc(-c2nc3ccccn3c2-c2ccnc(-c3ccc(OCCN4CCCC4)cc3)c2)c1,298
13,CCN1C(=O)CCCc2cc(Nc3ncc(Cl)c(N[C@H]4[C@@H](C(N)=O)[C@@H]5C=C[C@H]4C5)n3)c(OC)cc21,145 to 153
14,Cc1ccc(-c2ccc(-c3ccccc3)cc2)n1CC[C@H]1C[C@H](O)CC(=O)O1 (relative stereo),104 to 107
15,CC(C)c1ccc(-c2nc(=O)n(Cc3ccccc3)c3ccc(O)cc23)cc1,> 270
16,CC(C)(C)OC(=O)CN(Cc1ccccn1)c1cc(C(F)(F)F)c(Br)c(C(F)(F)F)c1,77 to 78
17,O=C1CCC2(CC1)CCC(O)CC2,65 to 67
18,Clc1ccc(-c2cc(C3CCN(Cc4ccccc4)CC3)n[nH]2)cc1,164 to 167
19,NC(=O)c1cccc(-c2ccc(Cl)c3cc(Cc4cc(F)cc(Cl)c4)sc23)c1,169 to 170
20,CC(CCBr)Oc1ccccc1 (configuration not stated),33 to 36
21,CC(=O)OCCC1CCn2c(c(C3=C(c4cn(C)c5ccccc45)C(=O)OC3=O)c3ccccc32)C1 (configuration not stated),159 to 161
22,CCN(CC)c1nc(C)nc2scnc12,41.6 to 43
23,O=C1Nc2ccccc2N(C(=O)CCN2CCCCC2)c2ccc(Cl)cc21,170 to 172
24,CCCOCCc1ccc(-c2ccc3c(c2)C=C(C(=O)Nc2ccc(CN(C)C4CCOCC4)cc2)CCS3(=O)=O)c(F)c1,172 to 174

# The remaining lines, values ahead:
row,melting point [°C],Compound
1,135,COC(=O)c1ccc(CBr)c(NC(=O)c2ccc(C(C)(C)C)cc2C(=O)OC(C)(C)C)c1
2,135 to 136,CCOC(=O)C1=C(C)NC(C)=C(C(=O)N[C@H](C(=O)OCC)C(C)C)[C@@H]1c1cccc([N+](=O)[O-])c1
3,190 to 192,N#Cc1cccc(-n2ncc(C(=O)O)c2C#N)c1
4,59 to 60,CCc1cccc2c(C(=O)OC)cnnc12
5,150,C=C(Br)CN1Cc2cccc3[nH]c(=O)n(c23)CC1C (configuration not stated)
6,270 to 273,CCOC(=O)c1sc(-n2ccc(O)cc2=O)nc1C
7,90,CNC(=O)[C@@H]1CCCN1S(=O)(=O)c1ccc(Cl)c(COc2cccc3c(-n4ccnc4)cc(C)nc23)c1Cl
8,123 to 124,CCC(O)(c1ccccc1)c1cc(OC)c(OC)c(OC)c1 (configuration not stated)
9,133 to 135,CCCc1oc(C)cc(=O)c1C(=O)Nc1cccc(C)c1C
10,38.5 to 39.5,CCOC(=O)Nc1cccc(C)c1C(=O)OCC
11,185 to 186,CCCn1nc2c(N)nc3ccccc3c2c1CCNC(C)=O
12,178,COC(=O)c1c(C)ccc(C(O)=S)c1C
13,116 to 117,NS(=O)(=O)Oc1cccc(Cl)c1Cl
14,86 to 88,CC(=O)c1nn(C)c2ccccc12
15,188,O=C(O)c1c(C(F)(F)F)nc2c(C(F)(F)F)cccc2c1O
16,91 to 93,CN(C)c1ccc(CC(CS)C(=O)Nc2cccc(C(=O)O)c2)cc1 (configuration not stated)
17,99 to 101,CCOC(=O)C1=C(C(=O)OCC)c2c(OC)ccc(Br)c2C1
18,160 to 162,CCN(Cc1cc(Br)ccc1NCc1ccccc1)c1ccc(C(N)=O)nn1
19,> 300,Cn1ncc2[nH]c3ccc(NC(=O)c4ccccc4)cc3c(=O)c21
20,108 to 110,CCOC(=O)c1cccn2cc(C(F)(F)F)nc12
21,78 to 79,COC(=O)C1CCCn2c(C(=O)c3ccc(F)cc3)ccc21 (configuration not stated)
22,183 to 184,CCCCN(Cc1ccc(-c2ccccc2-c2nnn[nH]2)cc1)c1ncc(C(=O)O)s1
23,210 to 211,COC(=O)Nc1cccc(C(=O)C=CN(C)C)c1
